The results in this text go back to patent US10829520B2, “Beta-hairpin peptidomimetics” (POLYPHOR AG, priority 2015, dated 2020).

Where a SMILES comes first, the peptide text is derived from it. Bridges are numbered along the chain shown (N, C = ends). [ ]: non-standard residue; d: D form. Tle = CC(C)(C)[C@H](N)C(=O)O; Nle = CCCC[C@H](N)C(=O)O; Orn = NCCC[C@H](N)C(=O)O; Dab = NCC[C@H](N)C(=O)O; Dap = NC[C@H](N)C(=O)O

Holding throughout (format): cell-based
The test system of series [1] is Acinetobacter baumannii 872842. Conditions: 872842.
For series [2], the system named is Acinetobacter baumannii DSM 30008. Conditions: DSM 30008. A digest of the protocol: (§1)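 MIC in μg/mL read as absence of visible growth after 18-20 h incubation at 35° C. Bacteria at about 10^6 CFU/mL in MH-II (cation-adjusted) broth plus 0.002% P-80 were exposed to two-fold peptide dilutions per standard CLSI microdilution.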
A further series relates to Escherichia coli 926415. The conditions noted are these: 926415.
Series [3] relates to Escherichia coli ATCC 25922. The conditions noted are these: ATCC 25922. A digest of the protocol: as §1
The test system of series [4] is Klebsiella pneumoniae 968733. The conditions noted are these: 968733.
Series [5] concerns Klebsiella pneumoniae SSI #3010. The conditions noted are these: SSI #3010. In short, it runs like this: as §1
The test system of series [6] is Pseudomonas aeruginosa ATCC 27853. Conditions: ATCC 27853. A digest of the protocol:
as §1

Series [7] concerns human red blood cells (hRBC). The series is described as follows: Hemolysis of human red blood cells. Conditions: red cells of human, 1 h, 100 μg/mL. In short, it runs like this:
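Percent hemolysis = OD540 of peptide-treated supernatant relative to the 2.5% Triton X-100 (100%) control, PBS containing 0.001% acetic acid defining 0%. Peptides tested at 100 μg/mL against 20% (v/v) washed human RBC, 1 h, 37 °C, 300 rpm.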

Turning to `CCCC[C@@H]1NC(=O)[C@@H]2CCCN2C(=O)[C@H]2CCCN2C(=O)[C@H](CO)NC(=O)[C@H](C)NC(=O)[C@H](C(C)(C)C)NC(=O)[C@@H](NC(=O)[C@H](Cc2c[nH]c3ccccc23)NC(=O)[C@H](CCN)NC(C)=O)CSSC[C@@H](C(=O)N[C@@H](CCCN)C(=O)N[C@@H](CCN)C(=O)N[C@H]2CCNC(=O)[C@H]([C@@H](C)O)NC(=O)[C@H](CCN)NC(=O)[C@H](CCN)NC(=O)[C@H](CC(C)C)NC(=O)[C@@H](Cc3ccccc3)NC(=O)[C@H](CCN)NC2=O)NC(=O)[C@H](Cc2ccc(O)cc2)NC(=O)[C@H](CO)NC1=O` [Ex. 35] (Ac-[Dab]WC[Tle]AS[dP]P[Nle]SYC[Orn][Dab][Dab][Dab][dF]L[Dab][Dab]T; disulfide 3-12; lactam 15-C), the “Acinetobacter baumannii 872842 MIC” value in series [1] was 1 µg/mL. In series [2], the “Acinetobacter baumannii DSM 30008 MIC” value was found to be 0.5 µg/mL. The “Escherichia coli 926415 MIC” value in the series on Escherichia coli 926415 stood at 0.5 µg/mL. The “Escherichia coli ATCC 25922 MIC” value in series [3] is 0.25 µg/mL. Further, in series [4], the “Klebsiella pneumoniae 968733 MIC” value stood at 2 µg/mL. For the same compound, the “Klebsiella pneumoniae SSI #3010 MIC” value in series [5] is 0.25 µg/mL. The “Pseudomonas aeruginosa ATCC 27853 MIC” value in series [6] was determined as 1 µg/mL. Further, in series [7], the “Hemolysis at 100 μg/mL” value was found to be 1%.

In the case of `CCCC[C@@H]1NC(=O)[C@@H]2CCCN2C(=O)[C@H]2CCCN2C(=O)[C@H](CO)NC(=O)[C@H](C)NC(=O)[C@H](C(C)(C)C)NC(=O)[C@@H](NC(=O)[C@H](Cc2c[nH]c3ccccc23)NC(=O)[C@H](CCN)NC(C)=O)CSSC[C@@H](C(=O)N[C@@H](CCCN)C(=O)N[C@H](C(=O)N[C@@H](CCN)C(=O)N[C@H]2CCNC(=O)[C@H]([C@@H](C)O)NC(=O)[C@H](CCN)NC(=O)[C@H](CCN)NC(=O)[C@H](CC(C)C)NC(=O)[C@@H](Cc3ccccc3)NC(=O)[C@H](CCN)NC2=O)[C@@H](C)O)NC(=O)[C@H](Cc2ccc(O)cc2)NC(=O)[C@H](CO)NC1=O` [Ex. 36] (Ac-[Dab]WC[Tle]AS[dP]P[Nle]SYC[Orn]T[Dab][Dab][Dab][dF]L[Dab][Dab]T; disulfide 3-12; lactam 16-C), the “Acinetobacter baumannii 872842 MIC” value in series [1] was 0.5 µg/mL. In addition, in series [2], the “Acinetobacter baumannii DSM 30008 MIC” value turned out to be 0.25 µg/mL. For the same compound, the “Escherichia coli 926415 MIC” value in the series with Escherichia coli 926415 was 0.25 µg/mL. For the same compound, the “Escherichia coli ATCC 25922 MIC” value in series [3] is 0.25 µg/mL. For the same compound, the “Klebsiella pneumoniae 968733 MIC” value in series [4] was found to be 0.5 µg/mL. The “Klebsiella pneumoniae SSI #3010 MIC” value in series [5] was determined as 0.25 µg/mL. Besides, in series [6], the “Pseudomonas aeruginosa ATCC 27853 MIC” value is 0.5 µg/mL. In addition, the “Hemolysis at 100 μg/mL” value in series [7] was <1%.

Take `CCCC[C@@H]1NC(=O)[C@@H]2CCCN2C(=O)[C@H]2CCCN2C(=O)[C@H](CO)NC(=O)[C@H](C)NC(=O)[C@H](C(C)(C)C)NC(=O)[C@@H](NC(=O)[C@H](Cc2c[nH]c3ccccc23)NC(=O)[C@@H](N)CN)CSSC[C@@H](C(=O)N[C@@H](CCN)C(=O)N[C@H](C(=O)N[C@@H](CCN)C(=O)N[C@H]2CCNC(=O)[C@H]([C@@H](C)O)NC(=O)[C@H](CCN)NC(=O)[C@H](CCN)NC(=O)[C@H](CC(C)C)NC(=O)[C@@H](Cc3ccccc3)NC(=O)[C@H](CCN)NC2=O)[C@@H](C)O)NC(=O)[C@H](Cc2ccc(O)cc2)NC(=O)[C@H](CO)NC1=O` [Ex. 37] (H-[Dap]WC[Tle]AS[dP]P[Nle]SYC[Dab]T[Dab][Dab][Dab][dF]L[Dab][Dab]T; disulfide 3-12; lactam 16-C): the “Acinetobacter baumannii 872842 MIC” value in series [1] was determined as 0.5 µg/mL. For the same compound, the “Acinetobacter baumannii DSM 30008 MIC” value in series [2] worked out at 0.125 µg/mL. For the same compound, the “Escherichia coli 926415 MIC” value with Escherichia coli 926415 came to 0.5 µg/mL. Further, the “Escherichia coli ATCC 25922 MIC” value in series [3] was determined as 0.125 µg/mL. Also, in series [4], the “Klebsiella pneumoniae 968733 MIC” value amounted to 2 µg/mL. The “Klebsiella pneumoniae SSI #3010 MIC” value in series [5] is 0.125 µg/mL. In addition, the “Pseudomonas aeruginosa ATCC 27853 MIC” value in series [6] was 0.5 µg/mL. In addition, in series [7], the “Hemolysis at 100 μg/mL” value came to 2%.

With `CCCC[C@@H]1NC(=O)[C@@H]2CCCN2C(=O)[C@H]2CCCN2C(=O)[C@H](CO)NC(=O)[C@H](C)NC(=O)[C@H](C(C)(C)C)NC(=O)[C@@H](NC(=O)[C@H](Cc2c[nH]c3ccccc23)NC(=O)[C@@H](N)CCCN)CSSC[C@@H](C(=O)N[C@@H](CCN)C(=O)N[C@H](C(=O)N[C@@H](CCN)C(=O)N[C@H]2CCNC(=O)[C@H]([C@@H](C)O)NC(=O)[C@H](CCN)NC(=O)[C@H](CCN)NC(=O)[C@H](CC(C)C)NC(=O)[C@@H](Cc3ccccc3)NC(=O)[C@H](CCN)NC2=O)[C@@H](C)O)NC(=O)[C@H](Cc2ccc(O)cc2)NC(=O)[C@H](CO)NC1=O` [Ex. 38] (H-[Orn]WC[Tle]AS[dP]P[Nle]SYC[Dab]T[Dab][Dab][Dab][dF]L[Dab][Dab]T; disulfide 3-12; lactam 16-C), the “Acinetobacter baumannii 872842 MIC” value in series [1] turned out to be 0.5 µg/mL. The “Acinetobacter baumannii DSM 30008 MIC” value in series [2] was 0.5 µg/mL. Besides, in the series with Escherichia coli 926415, the “Escherichia coli 926415 MIC” value turned out to be 0.125 µg/mL. Also, in series [3], the “Escherichia coli ATCC 25922 MIC” value was determined as 0.25 µg/mL. For the same compound, the “Klebsiella pneumoniae 968733 MIC” value in series [4] came to 2 µg/mL. Also, the “Klebsiella pneumoniae SSI #3010 MIC” value in series [5] was 0.25 µg/mL. In addition, in series [6], the “Pseudomonas aeruginosa ATCC 27853 MIC” value was found to be 0.25 µg/mL. For the same compound, the “Hemolysis at 100 μg/mL” value in series [7] amounted to 1%.

Regarding `CCCC[C@@H]1NC(=O)[C@@H]2CCCN2C(=O)[C@H]2CCCN2C(=O)[C@H](CO)NC(=O)[C@H](C)NC(=O)[C@H](C(C)(C)C)NC(=O)[C@@H](NC(=O)[C@H](Cc2c[nH]c3ccccc23)NC(=O)[C@@H](N)CCCNC(=N)N)CSSC[C@@H](C(=O)N[C@@H](CCN)C(=O)N[C@H](C(=O)N[C@@H](CCN)C(=O)N[C@H]2CCNC(=O)[C@H]([C@@H](C)O)NC(=O)[C@H](CCN)NC(=O)[C@H](CCN)NC(=O)[C@H](CC(C)C)NC(=O)[C@@H](Cc3ccccc3)NC(=O)[C@H](CCN)NC2=O)[C@@H](C)O)NC(=O)[C@H](Cc2ccc(O)cc2)NC(=O)[C@H](CO)NC1=O` [Ex. 39] (H-RWC[Tle]AS[dP]P[Nle]SYC[Dab]T[Dab][Dab][Dab][dF]L[Dab][Dab]T; disulfide 3-12; lactam 16-C), in series [1], the “Acinetobacter baumannii 872842 MIC” value is 0.5 µg/mL. The “Acinetobacter baumannii DSM 30008 MIC” value in series [2] amounted to 0.25 µg/mL. Also, the “Escherichia coli 926415 MIC” value in the series on Escherichia coli 926415 is 0.25 µg/mL. Besides, in series [3], the “Escherichia coli ATCC 25922 MIC” value was determined as 0.25 µg/mL. Moreover, the “Klebsiella pneumoniae 968733 MIC” value in series [4] was determined as 2 µg/mL. Moreover, the “Klebsiella pneumoniae SSI #3010 MIC” value in series [5] was 0.125 µg/mL. Also, the “Pseudomonas aeruginosa ATCC 27853 MIC” value in series [6] stood at 0.25 µg/mL. In series [7], the “Hemolysis at 100 μg/mL” value came to 4%.

`CCCC[C@@H]1NC(=O)[C@@H]2CCCN2C(=O)[C@H]2CCCN2C(=O)[C@H](CO)NC(=O)[C@H](C)NC(=O)[C@H](C(C)(C)C)NC(=O)[C@@H](NC(=O)[C@H](Cc2c[nH]c3ccccc23)NC(=O)[C@@H](N)CCC(=O)O)CSSC[C@@H](C(=O)N[C@@H](CCN)C(=O)N[C@H](C(=O)N[C@@H](CCN)C(=O)N[C@H]2CCNC(=O)[C@H]([C@@H](C)O)NC(=O)[C@H](CCN)NC(=O)[C@H](CCN)NC(=O)[C@H](CC(C)C)NC(=O)[C@@H](Cc3ccccc3)NC(=O)[C@H](CCN)NC2=O)[C@@H](C)O)NC(=O)[C@H](Cc2ccc(O)cc2)NC(=O)[C@H](CO)NC1=O` [Ex. 40] (H-EWC[Tle]AS[dP]P[Nle]SYC[Dab]T[Dab][Dab][Dab][dF]L[Dab][Dab]T; disulfide 3-12; lactam 16-C): the “Acinetobacter baumannii 872842 MIC” value in series [1] is 0.125 µg/mL. Moreover, the “Acinetobacter baumannii DSM 30008 MIC” value in series [2] turned out to be 0.25 µg/mL. Moreover, in the series with Escherichia coli 926415, the “Escherichia coli 926415 MIC” value amounted to 0.5 µg/mL. Also, in series [3], the “Escherichia coli ATCC 25922 MIC” value was determined as 0.125 µg/mL. Moreover, the “Klebsiella pneumoniae 968733 MIC” value in series [4] was found to be 4 µg/mL. In series [5], the “Klebsiella pneumoniae SSI #3010 MIC” value was determined as 0.25 µg/mL. In addition, the “Pseudomonas aeruginosa ATCC 27853 MIC” value in series [6] stood at 0.5 µg/mL. For the same compound, the “Hemolysis at 100 μg/mL” value in series [7] amounted to 2%.

Consider `CCCC[C@@H]1NC(=O)[C@@H]2CCCN2C(=O)[C@H]2CCCN2C(=O)[C@H](CO)NC(=O)[C@H](C)NC(=O)[C@H](C(C)(C)C)NC(=O)[C@@H](NC(=O)[C@H](Cc2c[nH]c3ccccc23)NC(=O)[C@H](C)NC(C)=O)CSSC[C@@H](C(=O)N[C@@H](CCN)C(=O)N[C@H](C(=O)N[C@@H](CCN)C(=O)N[C@H]2CCNC(=O)[C@H]([C@@H](C)O)NC(=O)[C@H](CCN)NC(=O)[C@H](CCN)NC(=O)[C@H](CC(C)C)NC(=O)[C@@H](Cc3ccccc3)NC(=O)[C@H](CCN)NC2=O)[C@@H](C)O)NC(=O)[C@H](Cc2ccc(O)cc2)NC(=O)[C@H](CO)NC1=O` [Ex. 41] (Ac-AWC[Tle]AS[dP]P[Nle]SYC[Dab]T[Dab][Dab][Dab][dF]L[Dab][Dab]T; disulfide 3-12; lactam 16-C), for which, in series [1], the “Acinetobacter baumannii 872842 MIC” value came out at 0.5 µg/mL. Further, the “Acinetobacter baumannii DSM 30008 MIC” value in series [2] came out at 0.5 µg/mL. Moreover, the “Escherichia coli 926415 MIC” value with Escherichia coli 926415 was determined as 0.5 µg/mL. The “Escherichia coli ATCC 25922 MIC” value in series [3] was found to be 2 µg/mL. For the same compound, the “Klebsiella pneumoniae 968733 MIC” value in series [4] worked out at 1 µg/mL. In addition, the “Klebsiella pneumoniae SSI #3010 MIC” value in series [5] amounted to 0.25 µg/mL. Further, the “Pseudomonas aeruginosa ATCC 27853 MIC” value in series [6] worked out at 0.5 µg/mL. The “Hemolysis at 100 μg/mL” value in series [7] is <1%.
